Reference: ChEMBL document CHEMBL1152346, “Hirseins A and B, daphnane diterpenoids from Thymelaea hirsuta that inhibit melanogenesis in B16 melanoma cells” (J Nat Prod, 2009)

Tests used:
B16 [1] = experiment: Inhibition of melanin production in mouse B16 cells at 100 uM after 48 hrs by spectrophotometry relative to control; format: functional; conditions: B16, 48 h
[2] = Cytotoxicity against mouse B16 cells assessed as viability at 0.1 uM after 48 hrs by viacount reagent staining technique relative to control; format: cell-based; conditions: read-out: Activity
B16 [3] = experiment: Inhibition of melanin production in mouse B16 cells at 0.1 uM after 48 hrs by spectrophotometry relative to control; format: functional; conditions: B16, 48 h

| Compound | inhibition at 100 µM (B16 [1]) | viability at 48 h, 0.1 µM [2] | inhibition at 0.1 µM (B16 [3]) |
| --- | --- | --- | --- |
| OC[C@H]1O[C@@H](Oc2ccc(O)cc2)[C@H](O)[C@@H](O)[C@@H]1O [ARBUTIN] | 33% | – | – |
| C=C(C)[C@@]12OC3(/C=C/CCCCC)O[C@@H]1[C@@H]1[C@@H]4O[C@]4(CO)[C@@H](O)[C@]4(O)C(=O)C(C)=C[C@H]4[C@@]1(O3)[C@H](C)[C@H]2OC(=O)/C=C/c1ccccc1 [HIRSEIN A] | – | 99.3% | 37% |
| C=C(C)[C@@]12OC3(CCCCCCCCC)O[C@@H]1[C@@H]1[C@@H]4O[C@]4(CO)[C@@H](O)[C@]4(O)C(=O)C(C)=C[C@H]4[C@@]1(O3)[C@H](C)[C@H]2OC(=O)/C=C/c1ccc(O)cc1 [HIRSEIN B] | – | 97.5% | 26% |
